Drawing on PubChem BioAssay (NCI), this text covers GI50 and TGI for six compounds.

Some test systems named below: SF-268 CNS; BT-549 breast; SF-539 CNS; SK-MEL-5 melanoma; IGROV1 ovarian; CAKI-1 renal; T-47D breast; SK-MEL-28 melanoma; NCI-H23 lung; UACC-62 melanoma.
Common to all, as to assay: NCI anticancer screen, dose series, 48 h

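Exposure lasted 48 hours, with cells grown in 96-well plates and compounds tested at five concentrations. GI50 = concentration required for 50% inhibition of growth. TGI: concentration producing complete growth inhibition.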

Regarding `O=C(Nc1ccccc1O)c1ccc(CNC(=O)c2sccc2Nc2ccnc(C(F)(F)F)c2)cc1`, the GI50 with SF-268 CNS was 7.04 µM; in the experiment on BT-549 breast, 5.54 µM; with SF-539 CNS, 3.56 µM; in the experiment with SK-MEL-5 melanoma it was 1.94 µM; in the experiment with IGROV1 ovarian, 14 µM; in the experiment with CAKI-1 renal, 6.63 µM. The GI50 was 3.45 µM with T-47D breast, 5.57 µM with SK-MEL-28 melanoma, 5.73 µM in the experiment with NCI-H23 lung and 4.13 µM in the experiment on UACC-62 melanoma. The TGI worked out at 27.7 µM in the experiment with SF-268 CNS; 35 µM in the experiment with BT-549 breast; 31.8 µM in the experiment with SF-539 CNS; 4.7 µM with SK-MEL-5 melanoma; 32.7 µM in the experiment on IGROV1 ovarian; 23.9 µM with CAKI-1 renal. In addition, the TGI in the experiment on T-47D breast turned out to be 29.9 µM; in the experiment on SK-MEL-28 melanoma it was 46.3 µM; in the experiment on NCI-H23 lung, 41.2 µM; in the experiment on UACC-62 melanoma, 20 µM.

With `CCCCCCC#CC#Cc1cccc(=O)o1`, the GI50 is 2.69 µM in the experiment with SF-268 CNS; 0.556 µM in the experiment with BT-549 breast; 3.19 µM in the experiment with SF-539 CNS; 0.304 µM in the experiment with SK-MEL-5 melanoma; 2.35 µM with IGROV1 ovarian; 3.4 µM with CAKI-1 renal. For the same compound, the GI50 in the experiment with T-47D breast was 16.6 µM; in the experiment with SK-MEL-28 melanoma, 3.22 µM; in the experiment with NCI-H23 lung it was 0.848 µM; with UACC-62 melanoma, 1.45 µM. The TGI was 11.9 µM with SF-268 CNS; 2.7 µM with BT-549 breast; 12 µM in the experiment on SF-539 CNS; 0.994 µM in the experiment with SK-MEL-5 melanoma; 9.2 µM in the experiment with CAKI-1 renal; 57.2 µM with T-47D breast. The values for the TGI with SK-MEL-28 melanoma, in the experiment with NCI-H23 lung and with UACC-62 melanoma were 10.7 µM, 2.25 µM and 2.86 µM, respectively.

On to `OCC#Cc1ccccc1C#Cc1ccc(C#Cc2ccccc2C#CCO)s1`, for which the GI50 with SF-268 CNS was 20.6 µM; in the experiment with BT-549 breast, 16.8 µM; in the experiment with SF-539 CNS, 18.1 µM; with SK-MEL-5 melanoma it was 16.3 µM; in the experiment on IGROV1 ovarian it was 13.7 µM; with CAKI-1 renal, 12.1 µM. Moreover, the GI50 with T-47D breast was 17.3 µM; in the experiment on SK-MEL-28 melanoma it was 20.5 µM; with NCI-H23 lung, 18.3 µM; in the experiment on UACC-62 melanoma it was 19.5 µM. Moreover, the TGI with SF-268 CNS was 44.5 µM; with BT-549 breast, 33.8 µM; in the experiment with SF-539 CNS, 34.2 µM; in the experiment with SK-MEL-5 melanoma, 31.2 µM; in the experiment on IGROV1 ovarian, 34.2 µM; in the experiment with CAKI-1 renal, 25.1 µM. Besides, the TGI came to 53.8 µM with T-47D breast, 46.8 µM with SK-MEL-28 melanoma, 33.4 µM in the experiment with NCI-H23 lung and 43.4 µM with UACC-62 melanoma.

In the case of `C[C@@H](Oc1ccc2[nH]nc(/C=C/c3cnn(CCO)c3)c2c1)c1c(Cl)cncc1Cl`, the GI50 is 0.177 µM in the experiment with SF-268 CNS; 0.142 µM in the experiment with BT-549 breast; 0.035 µM with SF-539 CNS; 0.963 µM in the experiment on SK-MEL-5 melanoma; 0.135 µM in the experiment on IGROV1 ovarian; 0.184 µM in the experiment on CAKI-1 renal. Moreover, the GI50 in the experiment on T-47D breast was 1.31 µM; in the experiment on SK-MEL-28 melanoma it was 1.72 µM; with NCI-H23 lung, 0.0796 µM; in the experiment with UACC-62 melanoma, 1.65 µM. In addition, the TGI with SF-268 CNS is 1.49 µM; in the experiment with BT-549 breast, 0.75 µM; in the experiment with SF-539 CNS it was 0.268 µM; with SK-MEL-5 melanoma it was 3.6 µM; in the experiment on IGROV1 ovarian it was 5.04 µM; in the experiment with CAKI-1 renal, above 100 µM. In addition, the TGI is 7.69 µM in the experiment on T-47D breast, 4.85 µM in the experiment with SK-MEL-28 melanoma, 2.18 µM with NCI-H23 lung and 3.81 µM with UACC-62 melanoma.

Consider `CC(=O)c1cc2c(c3ccsc13)-c1ccccc1CC2`, for which the GI50 is 43.4 µM in the experiment with SF-268 CNS; 37 µM in the experiment with BT-549 breast; 27.9 µM in the experiment on SF-539 CNS; 12.7 µM in the experiment on SK-MEL-5 melanoma; 36 µM with IGROV1 ovarian; 29.4 µM with CAKI-1 renal. The GI50 with T-47D breast is above 100 µM; in the experiment on SK-MEL-28 melanoma it was above 100 µM; in the experiment on NCI-H23 lung it was 28.1 µM; with UACC-62 melanoma, 7.71 µM. Moreover, the TGI is above 100 µM in the experiment with SF-268 CNS; above 100 µM in the experiment with BT-549 breast; above 100 µM in the experiment on SF-539 CNS; 35.7 µM in the experiment on SK-MEL-5 melanoma; above 100 µM in the experiment on IGROV1 ovarian; above 100 µM in the experiment on CAKI-1 renal. Besides, the TGI in the experiment on T-47D breast was above 100 µM; in the experiment on SK-MEL-28 melanoma it was above 100 µM; with NCI-H23 lung, 95.6 µM; with UACC-62 melanoma it was above 100 µM.

With `CC(C)(C)[Si](C)(C)OCC1C=CC(n2cnc3c(N)ncnc32)O1` (centres undefined), the TGI was above 100 µM in the experiment on SF-268 CNS; above 54.7 µM with BT-549 breast; above 81.5 µM with SF-539 CNS; 34.1 µM in the experiment on SK-MEL-5 melanoma; above 100 µM in the experiment with IGROV1 ovarian; above 100 µM with CAKI-1 renal. Besides, the TGI in the experiment on T-47D breast was above 100 µM; in the experiment with SK-MEL-28 melanoma it was above 100 µM; in the experiment on NCI-H23 lung, above 100 µM; in the experiment with UACC-62 melanoma, above 69.5 µM.
